Data published in paper PMC11009412, “Pathogenic mutations of human phosphorylation sites affect protein–protein interactions” (Nature Communications, 2024).
Several values for one entry are separate records, joined by “and”; a condition that tells them apart may be missing. Equal entries are not always repeated. Blank lines part the entries; values can stand above or below the molecule they belong to. Non-standard residues stand in square brackets, D forms with d. Residues, ends and D or L forms follow the SMILES beside them. pS = N[C@@H](COP(=O)(O)O)C(=O)O

Columns and labels:
GRB2 = experiment: PRISMA peptide pull-down screen, GRB2 binding to the EGFR control peptide; set-up: species or system human; settings: PRISMA pull-down from SILAC-labelled HEK-293 lysate; in all three replicates
Source text: (§1) A total of 117 peptides, consisting of 15 amino acids each, were synthesized in situ on a cellulose membrane using SPOT synthesis techniques[25] provided by JPT Peptide Technologies in Berlin, Germany. Among these peptides, 39 were wild-type non-phosphorylated, 39 were mutated, and 39 were phosphorylated. Whenever possible, the mutation site was positioned at position 7, which is in the center of the immobilized peptides, with their C-termini serving as the point of immobilization.
(§2) For the experimental procedure, three membranes were initially incubated with the lysis buffer (HEPES (50 mM, pH 7.9), NaCl (150 mM), EGTA (1 mM), MgCl2 (1 mM), glycerol (20%), NP-40 (1%), SDS (0.1%), and sodium deoxycholate (0.5%)). The membranes were incubated with the lysis buffer until completely moistened. […]
(§3) HEK-293 cells were lysed with the lysis buffer and the protein concentration was measured using DC protein assay (Bio-Rad). […]
(§4) During the analysis, peptides were eluted from the analytical column at a flow rate of 500 nl/min, employing a gradient as follows: 5 to 10% B over 5 min, 10 to 40% B over 60 min, 40 to 99% B over 5 min, and maintaining 99% B for 5 min. The samples were measured in the orbitrap fusion mass spectrometer using the following methods: a full scan was performed with a resolution of 120,000 over an m/z range of 300–1500. […]

14-3-3 epsilon (YWHAE) = target: T1, 14-3-3 epsilon (YWHAE) (Homo sapiens, UniProt P62258); experiment: Isothermal titration calorimetry (ITC) of GATAD1 peptides with 14-3-3ε; assay type: binding; settings: 18 °C, 400 µM peptide in syringe, 25 µM 14-3-3ε in chamber, 20 mM HEPES pH 7.0, 150 mM NaCl, 2 mM DTT
T1 construct: residues 1 and 236-255 are disordered and therefore not visible in the electron density; GST (N, cleaved yes); made in house; host or cells: Escherichia coli C41 (DE3)
T1 sequence (P62258 1-255): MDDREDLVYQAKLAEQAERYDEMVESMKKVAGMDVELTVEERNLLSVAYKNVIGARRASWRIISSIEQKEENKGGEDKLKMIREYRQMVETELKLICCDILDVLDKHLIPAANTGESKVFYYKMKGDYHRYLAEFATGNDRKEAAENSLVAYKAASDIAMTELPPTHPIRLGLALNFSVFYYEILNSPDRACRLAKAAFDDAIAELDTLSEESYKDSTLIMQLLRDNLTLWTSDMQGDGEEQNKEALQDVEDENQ
Experimental: The 14-3-3ε (YWHAE) cDNA was purchased from Twist Bioscience in the pTwist Chlor High Copy vector and cloned into the pGEX6P1 plasmid (GE Healthcare) for recombinant expression as a GST-fusion protein followed by a Prescission protease cleavage site. The plasmid was freshly transformed into Escherichia coli C41 (DE3) cells. Cultures were grown in terrific broth supplemented with ampicillin (100 μg/ml) at 37 °C and 80 rpm until an optical density at 600 nm of 0.7 was reached. […] Cells were harvested by centrifugation at 4000 g and frozen at −20 °C.
Following resuspension in lysis buffer (50 mM HEPES/NaOH pH 7.5, 500 mM NaCl and 3 mM Dithiothreitol (DTT)) supplemented with 1 mg deoxyribonuclease I (DNaseI, Roche) and protease inhibitor 4-(2-Aminoethyl) benzenesulfonyl fluoride hydrochloride S7(AEBSF), cells were disrupted using a microfluidizer (Microfluidics). The cell extract was centrifuged at 55,000 g for 45 min at 4 °C to remove insoluble parts. The cleared supernatant was applied onto a prepacked Glutathione Sepharose 4B column (Cytiva) equilibrated in the lysis buffer. The column was extensively washed with lysis buffer. To cleave off the GST tag, 1 mg PreScission protease was diluted in 5 ml OCC buffer (50 mM HEPES/NaOH pH 7.5, 150 mM NaCl, and 3 mM DTT), applied to the column material, and incubated overnight at 4 °C. Cleaved 14-3-3ε protein was eluted from the column using OCC buffer, concentrated and loaded onto an 16/60 S200 column (Cytiva) equilibrated in SEC buffer (20 mM HEPES/NaOH pH 7.5, 150 mM NaCl and 2 mM DTT). Pure and homogenous 14-3-3ε was concentrated to 13 mg/ml, flash-frozen in liquid nitrogen, and stored at −80 °C until further use.
GATAD1 peptides used in these experiments were obtained from JPT peptide technologies with an N-terminus in amine and a C-terminus in amide form with 95% purity. ITC experiments were performed using a PEAQ-ITC microcalorimeter (Malvern). All titrations were performed at 18 °C with 400 µM peptide in the syringe and 25 µM 14-3-3ε in the reaction chamber. The protein and the titration components were dissolved in a buffer containing 20 mM HEPES pH 7.0, 150 mM NaCl, and 2 mM DTT. Malvern software was used for data visualization and fitting. The raw ITC results can be found in Supplementary Fig. 42.

14-3-3 family proteins = experiment: PRISMA peptide pull-down screen, 14-3-3 binding to GATAD1 peptides; set-up: species or system human; settings: LFQ volcano plot and SILAC scatter plot; HEK-293 lysate, triplicates
Source text: as §1, §2, §3, §4

[1] = tested on: 14-3-3 proteins (beta/alpha, gamma, epsilon, zeta, eta and theta); experiment: Alanine scanning PRISMA pull-down, 14-3-3 proteins; assay type: binding, human; settings: PRISMA pull-down from HEK-293T lysate, LFQ, triplicates
Source text: In this experiment, each amino acid from the −5 to +5 positions surrounding the phosphorylated residue was mutated to alanine, except for original alanine residues which were mutated to glycine. The experiment also included the wild-type phosphorylated, wild-type non-phosphorylated, disease-associated mutant, and aspartic acid mutant peptides. These 15 peptides were synthesized on a cellulose membrane in triplicates (n = 3 biological replicates) to facilitate the pull-down of proteins from HEK-293T cell lysate. The synthesis of peptides, pull-downs, and sample preparation for mass spectrometry followed the procedures described earlier for the PRISMA screen. Subsequently, samples were eluted from StageTips using a solution containing 50% acetonitrile and 0.1% formic acid, dried, and resuspended in a solution containing 3% acetonitrile and 0.1% formic acid. […]
The acquired mass spectra were subjected to further analysis using MaxQuant (version 1.6.3.4). […] The LFQ values of significant proteins were z-scored by row and hierarchical clustering was performed (Fig. 6A and Supplementary Data 5). To better visualize the 14-3-3 proteins, their LFQ values were extracted from the whole table and were z scored and clustered individually (Fig. 5C).

- SILAC ratio phos/mut of GRB2 (GRB2): > 20
- SILAC ratio phos/wt of GRB2 (GRB2): > 20
Molecule: TFLPVPEpYINQSVPK [EGFR_phos, positive control, well-characterized EGFR-derived phosphopeptide]

- N (stoichiometry) by ITC (14-3-3 epsilon (YWHAE)): 1.42 ± 0.04
- Kd (14-3-3 epsilon (YWHAE); PEAQ-ITC, peptides N-terminal amine, C-terminal amide, read-out: Kd (binding constant) by ITC): ~3 µM and 3.4 µM
Molecule: CC(C)C[C@H](N)C(=O)N[C@@H](CCCNC(=N)N)C(=O)N[C@@H](CC(N)=O)C(=O)N[C@H](C(=O)N[C@@H](CCCCN)C(=O)N[C@@H](Cc1ccc(O)cc1)C(=O)N[C@@H](CCCCN)C(=O)N[C@@H](COP(=O)(O)O)C(=O)N[C@@H](C)C(=O)N1CCC[C@H]1C(=O)N[C@@H](C)C(=O)N[C@@H](C)C(=O)N[C@@H](CCC(=O)O)C(=O)N[C@@H](CCCCN)C(=O)N[C@@H](CCCCN)C(N)=O)[C@@H](C)O [GATAD1_phos] (H-LRNTKYK[pS]APAAEKK-NH2)
- Specific and differential binding of 14-3-3 proteins in PRISMA (in words) (14-3-3 family proteins): specifically interacts with the multiple 14-3-3 protein family members

- Interaction with 14-3-3ε by ITC (in words) (14-3-3 epsilon (YWHAE)): do not interact
Molecule: LRNTKYKDAPAAEKK [S102D, phosphomimetic S102D mutant GATAD1 peptide]
- 14-3-3 proteins pulled down in alanine scanning (in words) [1]: did not interact
